What was measured:
Sinapis arvensis = experiment: Test H weed control, field plots; format: in vivo; parameters: concentration or dose not given beside the values; settings: 36 days after treatment; g a.i./ha: tribenuron-methyl 22.5, metsulfuron-methyl 6, ethametsulfuron-methyl 16, imazapyr isopropylamine salt 15, aclonifen 1200
From the text: (§1) Field plots (2 m×5 m) were tilled to remove weed cover and then seeded in rows with the following weeds: Capsella bursa pastoris, Atriplex patula, Chenopodium album, Stellaria media, Mecurialis annua, Polygonum persicaria, Amaranthus retroflexus, Polygonum convolvulus, Polygonum aviculare, Viola arvensis, Matricaria inodora, Anagallis arvensis, Sinapis arvensis, Setaria viridis, Solanum nigrum and Echinochloa crusgalli. After 21 days from sowing, at which time the weeds had reached the 2- to 6-leaf stage, herbicide treatments were applied to the plots according to a complete randomized block design, with each herbicide treatment triply replicated. The herbicides were sprayed using standard flat fan nozzles moved perpendicular to the sown lines using water spray volumes of about 296 L/ha.
(§2) Assessments of weed control were made by visual inspection 36 days after herbicide treatment. A visual rating system was used based on a percentage scale from 0 to 100% compared to an adjacent untreated control plot. On this scale 0 represents no visual differences relative to an untreated control and 100 represents complete control of the given weed species.

Polygonum persicaria = experiment: Test H weed control, field plots; format: in vivo; parameters: concentration or dose not given beside the values; settings: 36 days after treatment; g a.i./ha: tribenuron-methyl 22.5, metsulfuron-methyl 6, ethametsulfuron-methyl 16, imazapyr isopropylamine salt 15, aclonifen 1200
From the text: as §1, §2

Amaranthus retroflexus = experiment: Test H weed control, field plots; format: in vivo; parameters: concentration or dose not given beside the values; settings: 36 days after treatment; g a.i./ha: tribenuron-methyl 22.5, metsulfuron-methyl 6, ethametsulfuron-methyl 16, imazapyr isopropylamine salt 15, aclonifen 1200
From the text: as §1, §2

Echinochloa crus-galli = experiment: Test H weed control, field plots; format: in vivo; parameters: concentration or dose not given beside the values; settings: 36 days after treatment; g a.i./ha: tribenuron-methyl 22.5, metsulfuron-methyl 6, ethametsulfuron-methyl 16, imazapyr isopropylamine salt 15, aclonifen 1200
From the text: as §1, §2

Polygonum convolvulus = experiment: Test H weed control, field plots; format: in vivo; parameters: concentration or dose not given beside the values; settings: 36 days after treatment; g a.i./ha: tribenuron-methyl 22.5, metsulfuron-methyl 6, ethametsulfuron-methyl 16, imazapyr isopropylamine salt 15, aclonifen 1200
From the text: as §1, §2

Viola arvensis = experiment: Test H weed control, field plots; format: in vivo; parameters: concentration or dose not given beside the values; settings: 36 days after treatment; g a.i./ha: tribenuron-methyl 22.5, metsulfuron-methyl 6, ethametsulfuron-methyl 16, imazapyr isopropylamine salt 15, aclonifen 1200
From the text: as §1, §2

Mercurialis annua = experiment: Test H weed control, field plots; format: in vivo; parameters: concentration or dose not given beside the values; settings: 36 days after treatment; g a.i./ha: tribenuron-methyl 22.5, metsulfuron-methyl 6, ethametsulfuron-methyl 16, imazapyr isopropylamine salt 15, aclonifen 1200
From the text: as §1, §2

Capsella bursa pastoris = experiment: Test H weed control, field plots; format: in vivo; parameters: concentration or dose not given beside the values; settings: 36 days after treatment; g a.i./ha: tribenuron-methyl 22.5, metsulfuron-methyl 6, ethametsulfuron-methyl 16, imazapyr isopropylamine salt 15, aclonifen 1200
From the text: as §1, §2

Matricaria inodora = experiment: Test H weed control, field plots; format: in vivo; parameters: concentration or dose not given beside the values; settings: 36 days after treatment; g a.i./ha: tribenuron-methyl 22.5, metsulfuron-methyl 6, ethametsulfuron-methyl 16, imazapyr isopropylamine salt 15, aclonifen 1200
From the text: as §1, §2

Anagallis arvensis = experiment: Test H weed control, field plots; format: in vivo; parameters: concentration or dose not given beside the values; settings: 36 days after treatment; g a.i./ha: tribenuron-methyl 22.5, metsulfuron-methyl 6, ethametsulfuron-methyl 16, imazapyr isopropylamine salt 15, aclonifen 1200
From the text: as §1, §2

Setaria viridis = experiment: Test H weed control, field plots; format: in vivo; parameters: concentration or dose not given beside the values; settings: 36 days after treatment; g a.i./ha: tribenuron-methyl 22.5, metsulfuron-methyl 6, ethametsulfuron-methyl 16, imazapyr isopropylamine salt 15, aclonifen 1200
From the text: as §1, §2

Atriplex patula = experiment: Test H weed control, field plots; format: in vivo; parameters: concentration or dose not given beside the values; settings: 36 days after treatment; g a.i./ha: tribenuron-methyl 22.5, metsulfuron-methyl 6, ethametsulfuron-methyl 16, imazapyr isopropylamine salt 15, aclonifen 1200
From the text: as §1, §2

Polygonum aviculare = experiment: Test H weed control, field plots; format: in vivo; parameters: concentration or dose not given beside the values; settings: 36 days after treatment; g a.i./ha: tribenuron-methyl 22.5, metsulfuron-methyl 6, ethametsulfuron-methyl 16, imazapyr isopropylamine salt 15, aclonifen 1200
From the text: as §1, §2

Solanum nigrum = experiment: Test H weed control, field plots; format: in vivo; parameters: concentration or dose not given beside the values; settings: 36 days after treatment; g a.i./ha: tribenuron-methyl 22.5, metsulfuron-methyl 6, ethametsulfuron-methyl 16, imazapyr isopropylamine salt 15, aclonifen 1200
From the text: as §1, §2

Stellaria media = experiment: Test H weed control, field plots; format: in vivo; settings: 36 days after treatment; g a.i./ha: tribenuron-methyl 22.5, metsulfuron-methyl 6, ethametsulfuron-methyl 16, imazapyr isopropylamine salt 15, aclonifen 1200
From the text: as §1, §2

Chenopodium album = experiment: Test H weed control, field plots; format: in vivo; settings: 36 days after treatment; g a.i./ha: tribenuron-methyl 22.5, metsulfuron-methyl 6, ethametsulfuron-methyl 16, imazapyr isopropylamine salt 15, aclonifen 1200
From the text: as §1, §2

[1] = system: Weeds Agronomically Important in Sunflower Crops; experiment: Test H summary; format: in vivo; settings: tribenuron-methyl 22.5 g a.i./ha, metsulfuron-methyl 6 g a.i./ha
From the text: as §1, §2

[2] = system: heterozygous resistant hybrids (C to H); settings: in vivo
Protocol: (§3) In a small field trial, the sunflower varieties described in Table 4 were sprayed post-emergence with a variety of sulfonylurea herbicide treatments.
(§4) Broadcast post-emergence applications of formulated sulfonylurea herbicides were performed at the 6-leaf development stage using four randomly distributed replications. Application rates were chosen to match the usual use rates of these herbicides in the crops they are registered in Europe. All herbicides except for metsulfuron-methyl were sprayed in combination with Citowet® non-ionic ethoxylated alcohol at 0.25% volume of formulated product per volume of water applied per hectare.
(§5) The evaluation of the maximum (i.e. peak) injury to sunflower varieties by sulfonylurea herbicides was measured by visual ratings, which are listed in Table 5. A rating of 0% phytotoxicity means no crop injury. […] A rating of 100% means the complete destruction of all plants.

[3] = system: Orobanche cumana (Race F); experiment: Test F sequential application to control Orobanche cumana; format: in vivo
Protocol: A greenhouse experiment was performed to identify the best sequential program compared to straight application of tribenuron-methyl or metsulfuron-methyl for control of Orobanche cumana (Race F). The dose range for optimum efficacy was also studied. Both herbicides were used as formulated compositions. […] BC4-M5M7×PHA155 is referred to below as “Hybrid 7”, and BC4-M5M12×PHA155 is referred to below as “Hybrid 12”.
Seed coating treatment was performed as described for Test D. Post-emergence treatments were applied at the 2-4 leaf stage of sunflower (corresponding to early stage of Orobanche attachment; identified as “T1”), the 6 leaf stage of sunflower (corresponding to the mid stage of Orobanche attachment; nodules <5 mm diameter; identified as “T2”) and 8 leaf stage of sunflower (corresponding to late stage of Orobanche attachment; identified as “T3”).
The efficacy was evaluated visually as described for Test D except that the efficacy was assessed ten days later than for Tests D and E. The later evaluation allowed observing any reduction of efficacy due to late Orobanche emergence or re-growth of treated nodules. Efficacy in controlling Orobanche attached to roots was evidenced by nodules comprising black necrotic tissues with no apparent active meristematic area. These nodules could be easily crushed between fingers.

[4] = system: Homozygous resistant inbred lines, BC3-M4M12 (I), BC3-M4M11 (J) and BC3-M4M7 (K); experiment: Test A summary, homozygous resistant inbred lines; settings: in vivo
Protocol: as §3, §4, §5

[5] = post-emergence T1 3 + T3 3 g a.i./ha
[6] = post-emergence T1 11.25 + T3 11.25 g a.i./ha
[7] = post-emergence T1 22.5 g a.i./ha
[8] = post-emergence T2 11.25 g a.i./ha
[9] = post-emergence T2 22.5 g a.i./ha
[10] = post-emergence T3 11.25 g a.i./ha
[11] = post-emergence T3 22.5 g a.i./ha
[12] = seed coating 11.25 + post-emergence T2 11.25 g a.i./ha
[13] = seed coating 11.25 + post-emergence T3 11.25 g a.i./ha

| Structure (SMILES) | weed control, visual rating: Sinapis arvensis (Sinapis arvensis) [%] | weed control, visual rating: Polygonum persicaria (Polygonum persicaria) [%] | weed control, visual rating: Amaranthus retroflexus (Amaranthus retroflexus) [%] | weed control, visual rating: Echinochloa crus-galli (Echinochloa crus-galli) [%] | weed control, visual rating: Polygonum convolvulus (Polygonum convolvulus) [%] | weed control, visual rating: Viola arvensis (Viola arvensis) [%] | weed control, visual rating: Mercurialis annua (Mercurialis annua) [%] | weed control, visual rating: Capsella bursa pastoris (Capsella bursa pastoris) [%] | weed control, visual rating: Matricaria inodora (Matricaria inodora) [%] | weed control, visual rating: Anagallis arvensis (Anagallis arvensis) [%] | weed control, visual rating: Setaria viridis (Setaria viridis) [%] | weed control, visual rating: Atriplex patula (Atriplex patula) [%] | weed control, visual rating: Polygonum aviculare (Polygonum aviculare) [%] | weed control, visual rating: Solanum nigrum (Solanum nigrum) [%] | weed control, visual rating: Stellaria media (Stellaria media) [%] | weed control, visual rating: Chenopodium album (Chenopodium album) [%] | weed control spectrum [1] | tolerance of heterozygous resistant hybrids C to H [2] | tolerance of homozygous resistant inbred lines I, J, K [4] | other results |
| --- | --- | --- | --- | --- | --- | --- | --- | --- | --- | --- | --- | --- | --- | --- | --- | --- | --- | --- | --- | --- |
| COC(=O)c1ccccc1S(=O)(=O)NC(=O)Nc1nc(C)nc(OC)n1 [Metsulfuron-methyl, metsulfuron-methyl] | 100 | 100 | 99 | 47 | 92 | 100 | 100 | 100 | 100 | 100 | 47 | 100 | 100 | 97 | 100 | 100 | excellent broad-spectrum weed control | as tolerant as the three homozygous resistant lines | resistant | % Control in Hybrid 7 [3, 5]: 92%; % Control in Hybrid 12 [3, 5]: 90%; % Control in Hybrid 7 ([3]; post-emergence T1 3 g a.i./ha): 65%; % Control in Hybrid 12 ([3]; post-emergence T1 3 g a.i./ha): 63%; % Control in Hybrid 7 ([3]; post-emergence T3 3 g a.i./ha): 93%; % Control in Hybrid 12 ([3]; post-emergence T3 3 g a.i./ha): 95%; control of Orobanche ([3]; single late post-emergence treatment with 3 g a.i./ha): excellent control |
| COC(=O)c1ccccc1S(=O)(=O)NC(=O)N(C)c1nc(C)nc(OC)n1 [Tribenuron-methyl, tribenuron-methyl] | 100 | 100 | 93 | 65 | 93 | 100 | 100 | 100 | 100 | 100 | 65 | 100 | 90 | 100 | 100 | 100 | excellent broad-spectrum weed control | as tolerant as the three homozygous resistant lines | resistant | rate needed for good control of Orobanche ([3]; greenhouse test, Hybrid 7 and Hybrid 12): 22.5 g a.i./ha; % Control in Hybrid 7 [3, 6]: 85%; % Control in Hybrid 12 [3, 6]: 85%; % Control in Hybrid 7 [3, 7]: 72%; % Control in Hybrid 12 [3, 7]: 73%; % Control in Hybrid 7 [3, 8]: 77%; % Control in Hybrid 12 [3, 8]: 73%; % Control in Hybrid 7 [3, 9]: 82%; % Control in Hybrid 12 [3, 9]: 83%; % Control in Hybrid 7 [3, 10]: 78%; % Control in Hybrid 12 [3, 10]: 80%; % Control in Hybrid 7 [3, 11]: 87%; % Control in Hybrid 12 [3, 11]: 87%; % Control in Hybrid 7 [3, 12]: 77%; % Control in Hybrid 12 [3, 12]: 78%; % Control in Hybrid 7 [3, 13]: 82%; % Control in Hybrid 12 [3, 13]: 83% |

— patent publication US6822146B2, “Sulfonylurea-tolerant sunflower line M7” (priority 2000, dated 2004)
